Measured values: patent US20220089662A1, “PREPRATION METHOD AND APPLICATION OF ANTI-INFLAMMATORY KIDNEY PROTECTING CLAM PEPTIDE” (Chenland Nutritionals Inc., priority 2020, published 2022)

Tests used:
[1] = tested on: spontaneously hypertensive rats (SHR); experiment: Protection of renal function in spontaneously hypertensive rats (SCr, SUA, BUN); format: in vivo, rat; settings: SHR serum, AC: captopril 10 mg/kg by gavage once a day for 4 weeks
Procedure: (§1) Spontaneously hypertensive rats were purchased from Beijing Weitong Lihua Experimental Animal Technology Co., Ltd.
(§2) Forty male spontaneously hypertensive rats (SHR), aged about 12 weeks and weighing about 270 G, were adaptively fed for one week. […] The rats in the AC group were given captopril 10 mg/kg by gavage, At the same time, the MC group was given the same volume of distilled water. The drug was administered once a day for 4 weeks. SCr, SUA and BUN were measured, and the data were analyzed by SPSS software.

[2] = tested on: spontaneously hypertensive rats (SHR); experiment: Anti-inflammatory test after administration in spontaneously hypertensive rats (serum IL-8, TNF-α, hs-CRP); format: in vivo, rat
Procedure: Anti-inflammatory test after administration in spontaneously hypertensive rats is as follows.
as §1
as §2, with “at” for “At”, “Serum IL-8, TNF-α” for “SCr, SUA”, “hs-CRP” for “BUN”

[3] = AC: captopril 10 mg/kg by gavage once a day for 4 weeks

`C[C@H](CS)C(=O)N1CCC[C@H]1C(=O)O` [captopril] showed a BUN [1] of 10.56 ± 3.17 mmol/L, an SCr [1] of 421.50 ± 101.20 µmol/L and an SUA [1] of 211.60 ± 39.89 mg/L. The TNF-α [2, 3] was 87.41 ± 19.19 pg/mL, the hs-CRP [2, 3] was 1.53 ± 0.41 µg/L and the “serum IL-8 level” value ([2]; positive drug group (captopril 10 mg/kg), 4 weeks) was 122 ± 12.15 pg/mL.
